# Experimental data as given in patent publication US8372582B2, “Methods of modulating metabolic memory” (Joslin Diabetes Center, Inc., priority 2006, dated 2013).
# Entries after “also recorded” stand apart in the source; their conditions may differ.
# What was measured:
# [1] = tested on: bovine retinal pericytes; test: HG-induced apoptosis (DNA fragmentation) in cultured retinal pericytes; assay type: cell-based; settings: for reversal of apoptosis / effects of HG once established: agent added during LG conditions after HG exposure; for effect on HG-induced apoptosis: pericytes in high glucose (20 mM), agent present with HG
# Procedure: Cell apoptosis will be evaluated by measurement of DNA fragmentation using cell death detection kit (ROCHE diagnostics). Approximately 15000 cells are seeded in 96-well plates in DMEM with 20% FBS for 18 hours. BRP are starved for 24 hours and then stimulated with either 5.5 or 20 mM of d-glucose for an addition 72 hours. DNA fragmentation is measured in accordance to manufacture's protocol. Increases in caspase 3+9 cleared will also be measured using immunoblot analysis. Measurement of NF-κB activity in cultured cells. Activity of NF-κB will be assessed by a microwell colorimetric assay using the TransAM NFκB transcription factor assay kit (Active Motif, Carlsbad, Calif.) following manufacturer's instruction (Renard et al., Nucleic Acids Res 29, E21 (2001)).
# Various potential mechanisms for the metabolic memory process in retinal pericytes were explored in vitro. Cells were culture in high glucose (HG, 20 mM glucose) for about 72 hours, and then for another 24 hours in low glucose (LG, 5.6 mM glucose). This mimics a period of hyperglycemia followed by normoglycemia, a common pattern in diabetics, who often have a period of poorly controlled glycemia before finding a regime that provides better control, thus providing a cultured cell model of metabolic memory.
# (§1) The role of p38 MAPK was studied further using SB203580, a specific inhibitor for p38 MAPK a and […] and adenoviral vector of dominant negative p38 MAPKα and β isoforms (Wang et al., J Biol Chem 273, 2161-8 (1998)), either at the same time as starting HG condition or after 3 days of HG when cells are returning to LG condition. In addition, the effects of the antioxidant N-acetylcysteine (NAC) were also evaluated. Activation of p38 MAPK β and δ was evaluated by immunoblotting with anti-phospho p38 MAPK α and δ antibodies.
# [2] = tested on: PDGF-Beta receptor; test: PDGF-BB-induced tyrosine phosphorylation of PDGF-β receptor in HG-treated pericytes (Western blot); assay type: cell-based; settings: high glucose
# Procedure: (§2) Protein tyrosine phosphatases (PTPs) play a key role in the regulation of receptor tyrosine kinases such as the PDGF-β receptor. Thus, experiments were performed to determine the pathway by which glycemic memory prevented tyrosine phosphorylation of the PDGF-Beta receptor. Cultured pericytes were exposed to either low glucose conditions (˜5.5 mM glucose, LG), high glucose conditions (˜20 mM glucose, HG), or high glucose followed by low glucose (˜20 mM, ±5.5 mM glucose, HG+LG) for 72 hours per exposure. Pericytes were lysed, and lysates were run on an SDS/PAGE gel, then transferred to nitrocellulose for immunoblotting, according to already published procedures. Commercially available antibodies for SHP-1 and another protein tyrosine phosphatase, PTP-1B were used to probe the blot, according to manufacturer's instructions.
# Cultured pericytes were treated with high glucose (˜20 mM glucose) and subsequently prepared for Western blot analyses as described in Example 2. An antibody directed against phosphorylated PDGF-Beta receptor was used to assess the effects of the HG treatment on receptor phosphorylation levels.
# [3] = tested on: SHP-1; test: HG-induced SHP-1 expression in pericytes (Western blot); assay type: cell-based; settings: high glucose
# Procedure: as §2
# [4] = tested on: p38 MAPK; test: HG-induced p38 MAPK activation in pericytes (immunoblot); assay type: cell-based, bovine; settings: high glucose
# Source text: In addition to PKC activation, the effect of HG on p38 MAPK activation was also characterized, since PKC δ activation induced by HG can activate p38 MAPK in aortic smooth muscle and renal mesangial cells. […] HG was able to increase the phosphorylation of p38 MAPK by 2-fold in pericytes after three days of exposure (FIG. 4) in parallel with PKC δ activation and increases in apoptosis; no effects on JNK were observed.
# as §1
Compound,reversal of apoptosis / effects of HG once established [1],effect on HG-induced apoptosis [1],effect on HG-induced abrogation of PDGF-BB actions [2],effect on HG-prevented tyrosine phosphorylation of PDGFR-β induced by PDGF ([2]; FIG. 16),effect on HG-induced expression of SHP-1 [3],prevention of HG induced p38 MAPK activation [4]
"CC(=O)N[C@@H](CS)C(=O)O [NAC, N-acetylcysteine]",not totally effective,partly able to prevent,,,,
"dominant negative form of SHP-1: dominant negative form of SHP-1 (Dubois et al., Nat. Med. 2006); C453S ablates phosphatase activity",,"reduces HG-induced apoptosis, even in the presence of PDGF",,,,
C[S+]([O-])c1ccc(-c2nc(-c3ccncc3)c(-c3ccc(F)cc3)[nH]2)cc1 (stereo not shown) [SB203580],not totally effective,partly able to prevent; also recorded: prevented apoptosis,abrogated PDGF-BB actions; also recorded: prevented,reversed,prevented,
CN(C)C[C@@H]1CCn2cc(c3ccccc32)C2=C(C(=O)NC2=O)c2cn(c3ccccc23)CCO1 [RBX],,ineffective,,,,ineffective
